Laboratory results taken from article PMC10258794, “To Fold or Not to Fold: Diastereomeric Optimization of an α-Helical Antimicrobial Peptide” (Journal of Medicinal Chemistry, 2023).
≈ marks a conversion by molar mass, not a printed value. Like-named read-outs stand apart in the source and are kept apart here. Blank lines part the entries; values can stand above or below the molecule they belong to. Non-standard residues stand in square brackets, D forms with d. Residues, ends and D or L forms follow the SMILES beside them.

Experiments:
[1] = system: Enterobacter cloacae; assay: microbe, parasite or virus in culture
Experimental: (§1) Antimicrobial activity was determined for all peptides on E. coli W3110, P. aeruginosa PAO1, A. baumannii ATCC19606, K. pneumoniae NCTC418, and methicillin-resistant S. aureus COL and for selected peptides on P. aeruginosa PA14 and the polymyxin B-resistant derivatives PA14 4.13, PA14 4.18, and PA14 2P4 as well as the clinical isolates ZEM-1A and ZEM9A, K. pneumoniae OXA-48, Enterobacter cloacae, Stenotrophomonas maltophilia, B. cenocepacia, and Staphylococus epidermis. To determine the MIC, the broth microdilution method was used.[75] A single bacterial colony was grown in LB medium overnight at 37 °C and 180 rpm shaking. The compounds were prepared as stock solutions of 2 mg/mL in sterilized milliQ deionized water, added to the first well of 96-well sterile, polypropylene round-bottom microtiter plates (TPP, untreated, Corning Incorporated, Kennebunk, USA), and diluted serially by 1/2. […] The bacterial inoculum was prepared by measuring the absorbance of the overnight culture, which was diluted to concentration of the bacteria was quantified by measuring absorbance at 600 nm and diluted to an OD600 of 0.022 in MH medium pH 7.4 (Sigma-Aldrich, Buchs, Switzerland). The sample solutions (150 μL) were mixed with 4 μL of diluted bacterial suspension with a final inoculation of about 5 × 10^5 CFU. For each test, two columns of the plate were kept for sterility control (MH medium only) and growth control (MH medium with bacterial inoculum, no compound). […] The plates were incubated at 37 °C for 16–20 h under static conditions. 15 μL of 3-(4,5-dimethylthiazol-2-yl)-2,5-diphenyltetrazolium bromide (MTT)[76] (1 mg/mL in sterilized milliQ deionized water) was added to each well, and the plates were incubated at room temperature until MTT staining was completed. The MIC was defined as the lowest concentration of the dendrimer that inhibits the visible growth of the tested bacteria (yellow) with the unaided eye.

[2] = system: P. aeruginosa ZEM-1A; assay: microbe, parasite or virus in culture; conditions: ZEM-1A
Experimental: as §1

[3] = system: human red blood cells; assay: Hemolysis assay (MHC)
Experimental: To determine the MHC stock solutions, 8 mg/mL peptide in PBS (pH 7.4) was prepared, and 50 μL was diluted serially by l/2 in 50 μL of PBS (pH 7.4) in a 96-well plate (Costar or Nunc, polystyrene, untreated). […] Plasma was discarded, and the pellet was re-suspended in a 15 mL Falcon tube in 5 mL of PBS. The washing was repeated three times, and the remaining pellet was re-suspended in 10 mL of PBS. The hRBC suspension (50 μL) was added to each well, and the plate was incubated at room temperature for 4 h. MHC end points were determined by visual determination of the wells after the incubation period. Controls on each plate included a blank medium control (50 μL PBS + 50 μL of hRBCs suspension) and a hemolytic activity control (mQ-deionized water 50 μL + 50 μL hRBC suspension).

[4] = system: A. baumannii ATCC19606
Experimental: as §1

[5] = system: K. pneumoniae NCTC418
Experimental: as §1

[6] = system: P. aeruginosa PAO1
Experimental: as §1

[7] = system: S. aureus COL MRSA
Experimental: as §1

[8] = EYPC vesicle leakage assay; format: biochemical; conditions: 10 μg/mL of compound; 10 mM TRIS, 107 mM NaCl, pH 7.4
Experimental: 5(6)-carboxyfluorescein (CF) was purchased from Sigma. EYPC, EYPG, and a Mini-Extruder were purchased from Avanti Polar Lipids. Egg PC or Egg PG thin lipid layers were prepared by evaporating a solution of 100 mg of EYPC or EYPG in 4 mL of MeOH/CHCl3 (1:1) on a rotary evaporator at room temperature and then dried in vacuo overnight. […] Extravesicular components were removed by gel filtration (Sephadex G-50) with 10 mM TRIS, 107 mM NaCl, pH 7.4 buffer. Final conditions: ∼2.5 mM PC or PG; inside: 50 mM CF, 10 mM TRIS, 10 mM NaCl, pH 7.4 buffer; outside: 10 mM TRIS, 107 mM NaCl, pH 7.4. […] The CF efflux was monitored at λem 517 nm (λex 492 nm) as a function of time after addition of the desired volume of peptide from 2 mg/mL stock in mQ water at t = 45 s, 10 and 50 μg/mL were monitored for both EYPC and EYPG. […] Fluorescence intensities were then normalized to the maximal emission intensity using I(t) = (It – I0)/(I∞ – I0) where I0 = It at peptide addition, I∞ = It at saturation of lysis.

[9] = system: E. coli W3110
Experimental: as §1

[10] = MH broth pH 7.4, 16–20 h, 37 °C
[11] = supplementary CSV, ranges of Table 1 given as one number

Molecule: CC(C)C[C@H](NC(=O)[C@H](CC(C)C)NC(=O)[C@H](CCCCN)NC(=O)[C@H](CC(C)C)NC(=O)[C@H](CC(C)C)NC(=O)[C@@H](CCCCN)NC(=O)[C@H](N)CCCCN)C(=O)N[C@@H](CCCCN)C(=O)N[C@@H](CC(C)C)C(=O)N[C@@H](CC(C)C)C(=O)N[C@H](CC(C)C)C(N)=O [HP7]
MIC E. cloacae [1]: 2 µg/mL (≈ 1.51 µM)
MIC ZEM-1A ([2]; pH 7.4): 1 µg/mL (≈ 0.757 µM)

Molecule: CC(C)C[C@H](NC(=O)[C@H](CC(C)C)NC(=O)[C@H](CC(C)C)NC(=O)[C@H](CCCCN)NC(=O)[C@H](CC(C)C)NC(=O)[C@H](CC(C)C)NC(=O)[C@H](CCCCN)NC(=O)[C@@H](CC(C)C)NC(=O)[C@@H](CC(C)C)NC(=O)[C@@H](CCCCN)NC(=O)[C@@H](N)CCCCN)C(N)=O [HP8, KkllKLLKLLL]
MIC P. aeruginosa ZEM-1A [2]: 2 µg/mL (≈ 1.51 µM)

MIC A. baumannii ATCC19606 ([4]; ATCC19606): 12 µg/mL (≈ 8.37 µM)
MIC A. baumannii ATCC19606 ([4]; ATCC19606, pH 7.4): 8 to 16 µg/mL
MIC K. pneumoniae NCTC418 ([5]; NCTC418): 48 µg/mL (≈ 33.5 µM)
MIC K. pneumoniae NCTC418 ([5]; NCTC418, pH 7.4): 32 to 64 µg/mL
MIC P. aeruginosa PAO1 ([6]; PAO1): 6 µg/mL (≈ 4.18 µM)
MIC P. aeruginosa PAO1 ([6]; PAO1, pH 7.4): 4 to 8 µg/mL
MIC S. aureus COL ([7]; COL): 12 µg/mL (≈ 8.37 µM)
MIC S. aureus COL MRSA ([7]; COL, pH 7.4): 8 to 16 µg/mL
Molecule: CC[C@H](C)[C@H](NC(=O)[C@@H](NC(=O)[C@@H](NC(=O)[C@@H](CCCNC(=N)N)NC(=O)[C@@H](NC(=O)[C@@H](NC(=O)[C@@H](CCCNC(=N)N)NC(=O)[C@@H](NC(=O)[C@@H](NC(=O)[C@@H](CCCNC(=N)N)NC(=O)[C@H](N)CCCNC(=N)N)[C@@H](C)CC)[C@@H](C)CC)[C@@H](C)CC)[C@@H](C)CC)[C@@H](C)CC)[C@@H](C)CC)C(N)=O [HP37, rrIIrIIrIII] (H-[dR][dR]II[dR]II[dR]III-NH2)
MHC [3]: 250 µg/mL
MHC ([3]; pH 7.4): 250 µg/mL

MIC A. baumannii ATCC19606 ([4]; ATCC19606): 12 µg/mL
MIC A. baumannii ATCC19606 ([4]; ATCC19606, pH 7.4): 8 to 16 µg/mL
MIC S. aureus COL ([7]; COL): 24 µg/mL
MIC S. aureus COL MRSA ([7]; COL, pH 7.4): 16 to 32 µg/mL
Molecule: H-RRIIRIIRIII-NH2 [HP36]
MHC [3]: 63 µg/mL
MHC ([3]; pH 7.4): 62.5 µg/mL

Molecule: CC(C)C[C@H](NC(=O)[C@H](CCCCN)NC(=O)[C@H](N)CCCCN)C(=O)N[C@@H](CC(C)C)C(=O)N[C@H](CCCCN)C(=O)N[C@H](CC(C)C)C(=O)N[C@H](CC(C)C)C(=O)N[C@@H](CCCCN)C(=O)N[C@@H](CC(C)C)C(=O)N[C@@H](CC(C)C)C(=O)N[C@H](CC(C)C)C(N)=O [HP28, kKLLkllKLLl]
EYPC vesicle leakage (%) [8]: 3%
MIC E. coli W3110 [9, 10]: 2 to 4 µg/mL
MIC E. coli W3110 [9, 11]: 3 µg/mL (≈ 2.27 µM)
MIC K. pneumoniae NCTC418 [5, 10]: >64 µg/mL
MIC P. aeruginosa PAO1 [6, 10]: 4 µg/mL (≈ 3.03 µM)
MIC P. aeruginosa PAO1 [6, 11]: 4 µg/mL (≈ 3.03 µM)
MIC S. aureus COL MRSA [7, 10]: 32 µg/mL (≈ 24.2 µM)
MIC S. aureus COL [7, 11]: 32 µg/mL (≈ 24.2 µM)

Molecule: H-RRLLRLLRLLL-NH2 [HP32]
MHC ([3]; human red blood cells in PBS pH 7.4, 4 h, room temperature): 15.6 µg/mL
MHC ([3]; supplementary CSV, human red blood cells): 16 µg/mL

Molecule: CC(C)C[C@H](NC(=O)[C@H](CC(C)C)NC(=O)[C@@H](CC(C)C)NC(=O)[C@H](CCCCN)NC(=O)[C@@H](CC(C)C)NC(=O)[C@H](CC(C)C)NC(=O)[C@@H](CCCCN)NC(=O)[C@H](CC(C)C)NC(=O)[C@@H](CC(C)C)NC(=O)[C@H](CCCCN)NC(=O)[C@@H](N)CCCCN)C(N)=O [HP15, KKlLkLlKlLL]
EYPC vesicle leakage (%) [8]: 3%
MIC A. baumannii ATCC19606 [4, 10]: 32 to 64 µg/mL
MIC A. baumannii ATCC19606 [4, 11]: 48 µg/mL (≈ 36.3 µM)
MIC E. coli W3110 [9, 10]: 8 µg/mL (≈ 6.05 µM)
MIC K. pneumoniae NCTC418 [5, 10]: >64 µg/mL
MIC P. aeruginosa PAO1 [6, 10]: 16 µg/mL (≈ 12.1 µM)
MIC P. aeruginosa PAO1 [6, 11]: 16 µg/mL (≈ 12.1 µM)
MIC S. aureus COL MRSA [7, 10]: >64 µg/mL

Molecule: CC(C)C[C@H](NC(=O)[C@H](CC(C)C)NC(=O)[C@H](CC(C)C)NC(=O)[C@@H](CCCCN)NC(=O)[C@@H](CC(C)C)NC(=O)[C@@H](CC(C)C)NC(=O)[C@@H](CCCCN)NC(=O)[C@@H](CC(C)C)NC(=O)[C@H](CC(C)C)NC(=O)[C@H](CCCCN)NC(=O)[C@@H](N)CCCCN)C(N)=O [HP29, KKLlkllkLLL]
EYPC vesicle leakage (%) [8]: 6%
MIC A. baumannii ATCC19606 [4, 10]: 8 µg/mL (≈ 6.05 µM)
MIC A. baumannii ATCC19606 [4, 11]: 8 µg/mL (≈ 6.05 µM)
MIC E. coli W3110 [9, 10]: 2 µg/mL (≈ 1.51 µM)
MIC K. pneumoniae NCTC418 [5, 10]: 64 µg/mL (≈ 48.4 µM)
MIC K. pneumoniae NCTC418 [5, 11]: 64 µg/mL (≈ 48.4 µM)
MIC P. aeruginosa PAO1 [6, 10]: 4 µg/mL (≈ 3.03 µM)
MIC P. aeruginosa PAO1 [6, 11]: 4 µg/mL (≈ 3.03 µM)
MIC S. aureus COL MRSA [7, 10]: 32 µg/mL (≈ 24.2 µM)
MIC S. aureus COL [7, 11]: 32 µg/mL (≈ 24.2 µM)

Molecule: CC(C)C[C@H](NC(=O)[C@H](CC(C)C)NC(=O)[C@@H](CCCCN)NC(=O)[C@H](CC(C)C)NC(=O)[C@H](CC(C)C)NC(=O)[C@@H](CCCCN)NC(=O)[C@H](N)CCCCN)C(=O)N[C@@H](CCCCN)C(=O)N[C@@H](CC(C)C)C(=O)N[C@H](CC(C)C)C(=O)N[C@H](CC(C)C)C(N)=O [HP26, kkLLkLLKLll]
EYPC vesicle leakage (%) [8]: 6%
MIC A. baumannii ATCC19606 [4, 10]: 16 µg/mL (≈ 12.1 µM)
MIC A. baumannii ATCC19606 [4, 11]: 16 µg/mL (≈ 12.1 µM)
MIC E. coli W3110 [9, 10]: 4 µg/mL (≈ 3.03 µM)
MIC K. pneumoniae NCTC418 [5, 10]: >64 µg/mL
MIC P. aeruginosa PAO1 [6, 10]: 4 µg/mL (≈ 3.03 µM)
MIC P. aeruginosa PAO1 [6, 11]: 4 µg/mL (≈ 3.03 µM)
MIC S. aureus COL MRSA [7, 10]: 32 µg/mL (≈ 24.2 µM)
MIC S. aureus COL [7, 11]: 32 µg/mL (≈ 24.2 µM)

Molecule: CC(C)C[C@H](NC(=O)[C@H](CCCCN)NC(=O)[C@H](CC(C)C)NC(=O)[C@H](CC(C)C)NC(=O)[C@@H](CCCCN)NC(=O)[C@H](N)CCCCN)C(=O)N[C@@H](CC(C)C)C(=O)N[C@@H](CCCCN)C(=O)N[C@@H](CC(C)C)C(=O)N[C@H](CC(C)C)C(=O)N[C@H](CC(C)C)C(N)=O [HP18, kkLLKLLKLll]
MIC A. baumannii ATCC19606 [4, 10]: 8 µg/mL (≈ 6.05 µM)
MIC A. baumannii ATCC19606 [4, 11]: 8 µg/mL (≈ 6.05 µM)
MIC E. coli W3110 [9, 10]: 4 to 8 µg/mL
MIC E. coli W3110 [9, 11]: 6 µg/mL (≈ 4.54 µM)
MIC K. pneumoniae NCTC418 [5, 10]: >64 µg/mL
MIC P. aeruginosa PAO1 [6, 10]: 8 µg/mL (≈ 6.05 µM)
MIC P. aeruginosa PAO1 [6, 11]: 8 µg/mL (≈ 6.05 µM)
MIC S. aureus COL MRSA [7, 10]: 16 to 32 µg/mL
